{
  "source": "patent US20070036776A1",
  "about": "“Bacterial signaling molecules that down-regulate pathogenic bacterial virulence properties” (priority 2004, published 2007)",
  "test_system": "human peripheral blood mononuclear cells (PBMCs)",
  "assay_type": "cell-based",
  "data": [
    {"substance": "staphylococcal superantigen-like protein 11 [SSL11]", "values": [
      {"measurement": "induction of T cell proliferation", "value": "not able to induce"}
    ]},
    {"substance": "toxic shock syndrome toxin-1 [TSST-1]", "values": [
      {"measurement": "concentration of maximum stimulation", "value": 50, "unit": "ng/mL"},
      {"measurement": "half maximal proliferation", "value": "approximately 500 pg/mL"}
    ]}
  ]
}
